# Patent publication US9878054B2, “Polypeptide and lipophilic moiety conjugate compositions, formulations, and uses related thereto” (Tufts Medical Center, Inc., priority 2012, dated 2018)
# pEC50: −log10 of the molar value.
# Tests used:
# [1] = tested on: human platelets (thrombin); experiment: Thrombin-induced aggregation of human platelets; type: cell-based; details: 3 μM compound
# Method: A, Depiction of the mechanism of action of the cell-penetrating PZ-128 pepducin compound targeting the third intracellular loop (red) of PAR1. B, The NMR structure of PZ-128 was determined by simulated annealing methods using 210 distance restraints and included restraints to the proximal 3 hydrocarbons of the lipid. […] D, PZ-128 inhibits PAR1-dependent platelet aggregation. Gel filtered human platelets were treated with various concentrations of PZ-128 and then challenged with the PAR1 agonist SFLLRN (2.5 μM), 20 μM ADP, 200 μM AYPGKF or 1 mg/ml Ristocetin. E, Human platelets were treated with 3 μM PZ-128, 3 μM RWJ-56110, or 5% dextrose vehicle before the addition of various concentrations of thrombin (n=3-5).
# PZ-128 also markedly right-shifted thrombin-induced aggregation by 5-fold. By comparison, the small molecule RWJ-56110 which antagonizes PAR1 at the extracellular ligand-binding site gave a 2-fold right shift in the thrombin activation curve of human platelets.
# Whole blood from healthy donors was collected into a 30 ml syringe containing sodium citrate (0.4% vol/vol final). Platelets were isolated from platelet rich plasma (PRP) using Sepharose 2B columns in modified PIPES buffer.
# human whole blood = experiment: Activated clotting time (ACT) of blood from PCI patients; details: iv 0.75 mg/kg bolus then 1.75 mg/kg/hr, 30 min
# Method: PZ-128 (χ) was spiked at various concentrations (0-150 μM) into fresh whole blood obtained from patients just prior to PCI. By comparison, blood was obtained at the 30 min time point from PCI patients (n=22) after a weight-adjusted dosage of bivalirudin (•) administered intravenously as a 0.75 mg/kg bolus followed by continuous infusion of 1.75 mg/kg/hr during the procedure. ACT assays were performed immediately using a Hemochron 801 with FTCA510-4 ACT cartridges containing silica, phospholipids, and diatomaceous earth (kaolin). The open circle represents the mean (±SD) ACT and mean bivalirudin concentration at the 30 min time point in the 22 PCI patients.
# The effects of PZ-128 micelles were measured on activated clotting time (ACT) in human blood samples freshly obtained from adult patients undergoing PCI. At concentrations of PZ-128 up to 150 μM, there were no effects on ACT in the human PCI blood samples (FIG. 5).
# Adult outpatients with angina referred for coronary angiography or PCI were enrolled in the Tufts Medical Center Adult Cardiac Catheterization Laboratory. Blood was collected prior to PCI or angiography and PZ-128 micelles were spiked into 1 ml samples of whole blood at a range of final concentrations (0-150 μmol/L). ACT was measured immediately in duplicate. […] Bivalirudin concentrations in plasma were measured by LC/MS/MS.
# [2] = tested on: guinea pig carotid artery thrombosis; experiment: Guinea pig carotid artery FeCl3 injury arterial thrombosis model; type: in vivo; details: sub-therapeutic dose alone (PZ-128 0.05 mg/kg; clopidogrel 1 mg/kg PO)
# Method: A carotid artery FeCl3 injury model was used in guinea pigs to assess the anti-thrombotic efficacy of PZ-128 micelles within 15 min of initiation of drug administration. FeCl3 denudes the artery and exposes type I collagen and other subendothelial matrix proteins to initiate platelet-dependent thrombosis. Guinea pigs received 10 min intravenous infusions of PZ-128 micelles, 5 min prior to carotid artery injury. […] Mean occlusion times increased by 4-fold to 40 min at doses above 0.05 mg/kg PZ-128.
# Male Hartley guinea pigs (150˜220 g) were purchased from Charles River Laboratories. A 0.61 mm-diameter catheter was inserted into the left jugular vein of anesthetized animals for administration of infusions of 5% USP dextrose vehicle or PZ-128 micelles. A 0.5 V-Doppler probe (Transonic Systems, Ithaca, N.Y.) was placed around the right carotid artery to record blood flow. A range of doses of PZ-128 micelles from 0.05 to 1.6 mg/kg in 0.9 ml volumes were delivered at an injection rate of 0.09 ml/min by a Harvard syringe pump. Five minutes after the infusion ended, arterial thrombosis was induced by placing a 5×5 mm^2 piece of filter paper soaked in freshly made 20% FeCl3 solution on the right carotid artery 5 mm distal to the probe for 20 minutes. […] To examine possible synergistic effects of PZ-128 micelles and P2Y12-ADP receptor inhibition, 1 mg/kg clopidogrel was administered by oral gavage 4 hours prior to FeCl3 injury. In these synergy experiments, the maximum endpoint was set at 90 minutes for occlusion time.
# [3] = cited from earlier work
# PAR1 = details: read-out: EC50, activation of guinea pig platelets; PRP from vehicle-treated guinea pigs
molecule,measurement,setting,value
"NCC[C@H](NC(=O)[C@H](Cc1ccc(F)c(F)c1)NC(=O)Nc1ccc2c(CN3CCCC3)cn(Cc3c(Cl)cccc3Cl)c2c1)C(=O)NCc1ccccc1 [RWJ-56110, reference compound]",Right shift of thrombin-induced aggregation curve,[1],2 fold
CC[C@H](C)[C@H](NC(=O)[C@H](CCC(=O)O)NC(=O)[C@H](CCC(=O)O)NC(=O)[C@H](Cc1ccccc1)NC(=O)[C@H](CC(=O)O)NC(=O)CNC(=O)[C@H](CC(N)=O)NC(=O)CNC(=O)CNC(=O)CNC(=O)CNC(=O)[C@@H]1CCCN1C(=O)[C@H](CCCNC(=N)N)NC(=O)[C@@H]1CCCN1C(=O)[C@H](N)Cc1ccccc1)C(=O)N1CCC[C@H]1C(=O)N[C@@H](CCC(=O)O)C(=O)N[C@@H](CCC(=O)O)C(=O)N[C@@H](Cc1ccc(O)cc1)C(=O)N[C@@H](CC(C)C)C(=O)O [bivalirudin],Activated clotting time (ACT),human whole blood,highly elevated
"COC(=O)[C@H](c1ccccc1Cl)N1CCc2sccc2C1 [clopidogrel, reference compound]",Protection against arterial occlusion when used alone,[2],non-significant protection
CCOC(=O)N[C@@H]1CC[C@@H]2[C@@H](C1)C[C@H]1C(=O)O[C@H](C)[C@H]1[C@H]2/C=C/c1ccc(-c2cccc(F)c2)cn1 [vorapaxar],Pharmacodynamic (PD) half-life,[3]; oral administration,up to 3 weeks
same,Plasma half-life,[3]; single loading dose,5 to 11 days
SFLLRN,pEC50,PAR1,5.60
